Reference: patent US20160030364A1, “Therapeutic Compositions and Uses Thereof” (MANUKA HEALTH NEW ZEALAND LIMITED, priority 2013, published 2016)

Key:
Assay type in all cases: cell-based
[1] = system: human gastric carcinoma cell line (NCI-N87); test: MTT anti-proliferative assay, NCI-N87 (Examples 3-12); conditions: 200 μg/ml; for % stim. / Mean OD (570 nm) / % inhibition: 48 hours; for inhibition at 200 µg/mL: Homo sapiens, NCI-N87, 48 h
Procedure: (§1) 5-phenylpenta-2,4-dienoic acid was assessed for its ability to modulate the viability and proliferation of human colorectal adenocarcinoma cells (DLD-1); human colon cancer cell line (HCT-116); human gastric carcinoma cell line (NCI-N87); and human oesophageal squamous cell carcinoma cell line (KYSE-30) as assessed by the MTT assay. The positive control, 5-fluorouracil (5-FU) was included at three concentrations; in addition to an unsupplemented cell control as a negative control in the study. The 5-phenylpenta-2,4-dienoic acid was a genuine standard with chemical structure confirmed by NMR and MS.
(§2) The four human gastrointestinal carcinoma cell lines were revived from cryostorage and cultured in the presence of the test and reference samples. An MTT assay was then performed on the cultures to determine the effect of the samples on the cell viability and proliferation.
(§3) The test sample 5-phenylpenta-2,4-dienoic acid, and all other test samples in Examples 4-12 (except tectochrysln) were Initially dissolved in pure ethanol to a concentration of around 13.35 mg/ml. Tectochrysin was initially dissolved in triethylene glycol mono-methyl ether to the same concentration. Working solutions were then prepared from the stock solutions by dilution to 15% ethanol/Hanks Balanced Salt Solution (ETOH)/HBSS to a concentration of 2 mg/mL solids. In the assay the final concentration of the samples was 200 μg/ml with a final EtOH concentration of 1.5%. Final concentrations of test compounds and propolis prepared as above are as noted in Example 3.
(§4) • 1. Human colorectal adenocarcinoma cells (ATCC CCI-221, DLD-1)(ATCC, Bethesda, Md., USA) • 2. Human gastric carcinoma cells (ATCC CRL-5822, NCI-N87)(ATCC, Bethesda, Md., USA) • 3. Human oesophageal squamous cell carcinoma (ECACC, KYSE-30)(Sigma Aldrich, Auckland, NZ) • 4. Human colon carcinoma cells (ECACC HCT-116)(Sigma Aldrich, Auckland, NZ) • 5. Penicillin-streptomycin solution: 10000 units/ml penicillin, 10 mg/ml streptomycin in 0.9% NaCl (Sigma Cat #P-0781). Stored at −20° C. • 6. For DLD-1 cells: DMEM culture medium (Invitrogen Cat #12100-046). Stored at 4° C. • 7. For NCI-N87 cells: RPMI-1640 medium modified to contain 2 mM L-glutamine, 10 mM HEPES, 1 mM sodium pyruvate, 4500 mg/L glucose, and 1500 mg/L sodium bicarbonate (Sigma R6504). Stored at 4° C. • 8. For KYSE-410 cells: RPMI-1640 medium modified to contain 2 mM L-glutamine (Sigma R6504). Stored at 4° C. • 9. For HCT-116 cells: McCoy's 5A medium modified to contain 2 mM L-glutamine (Sigma M48792). Stored at 4° C. • 10. Trypsin-EDTA solution: 0.25% Trypsin/EDTA, Invitrogen Cat#15400054 (×10 in stock). • 11. Phosphate buffered saline (PBS) (Prepared by TBL). • 12. Hanks Balanced Salt Solution (HBSS). (GIBCO Cat No. 14185-052). Stored at 4° C. • 13. Foetal Bovine Serum (GIBCO Cat #10091-148). Stored at −20° C. • 14. MTT Reagent: 100 mg/vial, (SIGMA Cat. No. M-2128) dissolved in PBS at 10 mg/ml and stored at −20° C. 5 mg/ml MTT solution will be prepared in PBS and stored at 4° C. as working solution. • 15. MTT lysis buffer: 10% sodium dodecyl sulphate (SDS)/45% Dimethyl Formamide (20 g SDS will be dissolved in 100 ml of double-distilled water (DDW), and 90 ml of Dimethyl Formamide will be added to the SDS solution). The pH will be adjusted to 4.7 by glacial acetic acid, and DDW added up to a final volume of 200 ml. • 16. 5-Fluorouracil (5-FU), (Sigma Cat. No. F-6627). Three working solutions will be prepared at 19.5 μg/ml. 6.5 μg/ml and 1.95 μg/ml dissolved in 15% Ethanol/HBSS. Final concentrations will be 1.95 μg/ml (15 μM), 0.65 μg/ml (5 μM) and 0.195 μg/ml (1.5 μM).
(§5) The medium for the propagation of the each of the cells lines is given above. Each medium was prepared following the ATCC/ECACC instructions and supplemented with penicillin-streptomycin solution (10 ml per litre). FBS (at 10%) was added just before use.
• 1. […]

[2] = system: human colon cancer cell line (HCT-116); test: MTT anti-proliferative assay, HCT-116 (Examples 3-12); conditions: 200 μg/ml; for % inhibition / % stim. / Mean OD (570 nm): 48 hours; for inhibition at 200 µg/mL: Homo sapiens, HCT-116, 48 h
Procedure: as §1, §2, §3, §4, §5
• 1. […]

[3] = system: human oesophageal squamous cell carcinoma cell line (KYSE-30); test: MTT anti-proliferative assay, KYSE-30 (Examples 3-13); conditions: Examples 3-12, 200 μg/ml, 48 hours; for inhibition at 200 µg/mL: Homo sapiens, KYSE-30, 48 h
Procedure: as §1, §2, §3, §4, §5
• 1. […]

[4] = system: human colorectal adenocarcinoma cells (DLD-1); test: MTT anti-proliferative assay, DLD-1 (Examples 3-12); conditions: 200 μg/ml; for % stim. / Mean OD (570 nm) / % inhibition: 48 hours; for inhibition at 200 µg/mL: Homo sapiens, DLD-1, 48 h
Procedure: as §1, §2, §3, §4, §5
• 1. […]

[5] = system: human colorectal adenocarcinoma cells (DLD-1); test: MTT proliferation assay, DLD-1 (Examples 1-2); conditions: Example 2, DLD-1, sample 200 μg/mL, 24 hours incubation; for inhibition at 200 µg/mL: Homo sapiens
Procedure: (§6) Test samples shown below in Table 2 were assessed for their ability to modulate the viability and proliferation of human colorectal adenocarcinoma cells (DLD-1) as assessed by the MTT assay. A positive control, 5-fluorouracil (5-FU) was included in addition to an unsupplemented cell control (negative control) in the study. The test samples were obtained by fractionation of propolis tincture.
as §6, with “study.” for “study. The test samples were obtained by fractionation of propolis tincture.”
Human colorectal adenocarcinoma epithelial cell lines were revived from cryostorage and cultured in the presence of the test and reference samples. The culture conditions for the cells were those described by the supplier of the cells (ATCC). An MTT assay was then performed on the cultures to determine the effect of the samples on the cell proliferation.
Working solutions were prepared by dissolving the test fractions in 15% ethanol (ETOH)/HBSS to a concentration of 2 mg/mL solids.
• 1. Human colorectal adenocarcinoma cells (ATCC CCI-221, DLD-1). • 2. Penicillin-streptomycin solution: 10000 units/mL penicillin, 10 mg/mL streptomycin in 0.9% NaCl (Sigma Cat #P-0781). Stored at −20° C. • 3. DMEM culture medium (Invitrogen Cat #12100-046) Stored at −20° C. • 4. Trypsin-EDTA solution: 0.25% Trypsin/EDTA, Invitrogen Cat#15400054 (×10 in stock). • 5. Phosphate buffered saline (PBS) (Prepared by TBL). • 6. Hanks Balanced Salt Solution (HBSS). (GIBCO Cat No. 14185-052). Stored at 4° C. • 7. Foetal Bovine Serum (GIBCO Cat #10091-148). Stored at −20° C. • 8. MTT Reagent: 100 mg/vial, (SIGMA Cat. No. M-2128) dissolved in PBS at 10 mg/mL and stored at −20° C. 5 mg/mL MTT solution were prepared in PBS and stored at 4° C. as working solution. • 9. MTT lysis buffer: 10% sodium dodecyl sulphate (SDS)/45% Dimethyl Formamide (20 g SDS was dissolved in 100 mL of double-distilled water (DDW), and 90 mL of Dimethyl Formamide added to the SDS solution). The pH was adjusted to 4.7 by glacial acetic acid, and DDW added up to a final volume of 200 mL. • 10. 5-Fluorouracil (5-FU), (Sigma Cat. No. F-6627). Two working solutions were prepared at 150 ng/mL and 75 ng/mL, dissolved in 15% Ethanol/HBSS. Final concentrations were 7.50 ng/mL and 3.75 ng/mL.
The medium for the propagation of the colorectal adenocarcinoma (DLD-1) cells was DMEM, supplemented with penicillin-streptomycin solution (10 mL per litre). FBS was added just before use to give 10% w/v.
• 1. The human colorectal adenocarcinoma cells (DLD-1) obtained from the American Type Culture Collection USA were revived from cryostorage. • 2. Following initial propagation using the media described above (see Medium Preparation), the culture was subcultured using the trypsin-EDTA as follows. The media was removed and 5 mL of the trypsin-EDTA solution added and incubated at 37° C. for 5 min or until all the cells had detached. The trypsin was neutralised by adding an equal volume of DMEM medium and the culture centrifuged at 300 g (1200 rpm) for 5 min at 4° C. • 3. The supernatant was decanted and the cell pellets resuspended in medium DMEM, FBS (10%), penicillin (100 units/mL), streptomycin (100 μg/mL). The cells were cultured at 37° C. in 5% CO2/95% air. • 4. After reaching confluence, the cells were detached using trypsin-EDTA and centrifuged as described in 2 above. • 5. The supernatants were discarded and the cells resuspended in DMEM and supplements as described in 3 above at 1.0×10^4 cells per mL. • 6. Into each well of three 96 well plates, 180 μl of the cells (1,800 cells/well) or medium was added. The plates were incubated at 5% CO2/95% air at 37° C. for 48 h which was sufficient to allow the cells to adhere. • 7. To each well, 20 μl of each, of the test samples or positive control was added. […]

[6] = listed as Pinobanksin 3-O-acetate

O=C(O)C=CC=Cc1ccccc1 [5-phenylpenta-2,4-dienoic acid]
% stim. [1]: 0% | Mean OD (570 nm) [1]: 0.2537 | inhibition at 200 µg/mL [1]: 42.6% | % inhibition [2]: 36.43% | % stim. [2]: 0% | Mean OD (570 nm) [2]: 0.3232 | inhibition at 200 µg/mL [2]: 36.4% | % inhibition [3]: 37.55% | % stim. [3]: 0% | Mean OD (570 nm) [3]: 0.3758 | inhibition at 200 µg/mL [3]: 37.6% | % stim. [4]: 0% | Mean OD (570 nm) [4]: 0.2329 | inhibition at 200 µg/mL [4]: 43.5%

O=C(/C=C/c1ccc(O)c(O)c1)OCCc1ccccc1 [CAPE, Caffeic acid phenethyl ester]
inhibition at 200 µg/mL [5]: 76%

O=C(O)/C=C/c1ccc(O)c(O)c1 [Caffeic acid]
Mean OD (570 nm) [5]: 0.0113 | inhibition at 200 µg/mL [5]: 96.5%

O=c1cc(-c2ccccc2)oc2cc(O)cc(O)c12 [Chrysin]
inhibition at 200 µg/mL [5]: 61.9%

O=c1c(O)c(-c2ccccc2)oc2cc(O)cc(O)c12 [Galangin]
inhibition at 200 µg/mL [5]: 56.5%

COc1cc(O)c2c(c1)OC(c1ccccc1)CC2=O (stereo not shown) [Pinocembrin 7-methyl ether]
% inhibition [5]: 2.71% | Mean OD (570 nm) [5]: 0.3151 | % inhibition ([5]; listed as #38 Pinocembrin 7-methyl ether): 2.7%

O=C(O)/C=C/c1ccccc1 [Trans-Cinnamic acid]
Mean OD (570 nm) [5]: 0.2390 | inhibition at 200 µg/mL [5]: 26.2%

COc1ccc(/C=C/C(=O)OCc2ccccc2)cc1O [benzyl isoferulate]
% inhibition [1]: 79.95% | % stim. [1]: 0% | Mean OD (570 nm) [1]: 0.0885 | inhibition at 200 µg/mL [1]: 80% | % inhibition [2]: 94.81% | % stim. [2]: 0% | Mean OD (570 nm) [2]: 0.0264 | inhibition at 200 µg/mL [2]: 94.8% | % inhibition [3]: 95.82% | % stim. [3]: 0% | Mean OD (570 nm) [3]: 0.0251 | inhibition at 200 µg/mL [3]: 95.8% | % inhibition [4]: 90.81% | % stim. [4]: 0% | Mean OD (570 nm) [4]: 0.0379 | inhibition at 200 µg/mL [4]: 90.8%

CC(=O)O[C@H]1C(=O)c2c(O)cc(O)cc2O[C@@H]1c1ccccc1 [pinobanksin 3-O-acetate, pinobanksin-3-acetate]
% inhibition [1]: 48.22% | % stim. [1]: 0% | Mean OD (570 nm) [1]: 0.2287 | % inhibition [1, 6]: 48.2% | % inhibition [2]: 90.61% | % stim. [2]: 0% | Mean OD (570 nm) [2]: 0.0477 | % inhibition [2, 6]: 90.6% | % inhibition [3]: 68.01% | % stim. [3]: 0% | % inhibition [3, 6]: 68.0% | % stim. [4]: 0% | % inhibition [4, 6]: 75.4%

COc1cc(O)c(C(=O)/C=C/c2ccccc2)c(O)c1 [pinostrobin chalcone]
% stim. [1]: 5.5% | Mean OD (570 nm) [1]: 0.4659 | % inhibition [2]: 51.2% | % stim. [2]: 0% | Mean OD (570 nm) [2]: 0.2482 | % inhibition [3]: 45.0% | % stim. [3]: 0% | Mean OD (570 nm) [3]: 0.3312 | % inhibition [4]: 83.3% | % stim. [4]: 0% | Mean OD (570 nm) [4]: 0.069
